Experimental findings from US8044186B2, “Heterologous production of capreomycin and generation of new capreomycin derivatives through metabolic engineering” (priority 2007, dated 2011) are described below.

The test system of assay [1] is E. coli DH5α/pBAD33/pSJ101 (cmnU−, tlyA+). Description: MIC in E. coli expressing tlyA. The format is cell-based, Escherichia coli. An excerpt:
(§1) Analysis of cmnU in E. coli. The gene cmnU was PCR amplified from pCMN-P4C8RF using the following primers: CmnU-NdeI (5′-[…]-3′) (SEQ ID NO:37) and CmnU-HindIII (5′-[…]-3′) (SEQ ID NO:38). The amplicon was cloned into pCR-BluntII-TOPO according to manufacturer's instructions (Invitrogen), resulting in pCR-BluntII-TOPO-cmnU. The NdeI/HindIII fragment of pCR-Blunt-TOPO-cmnU containing cmnU was subcloned into the corresponding restriction sites of pET22b (Novagen), resulting in pET22b-cmnU. The XbaI/HindIII fragment of pET22b-cmnU containing the optimized ribosome-binding site and cmnU was subcloned into the corresponding sites of pBAD33 (14) resulting in pBAD33-cmnU. This construct results in the expression of cmnU under the control of the arabinose promoter of pBAD33. pBAD33 and pBAD33-cmnU were transformed into DH5α strains containing either pLJ102 (empty vector) or pSJ101 (tlyA inserted into pLJ102 and expression controlled by IPTG induction) (18). Each of these strains was grown in LB medium containing chloramphenicol (15 μg/ml) and ampicillin (100 μg/ml) for plasmid maintenance, isopropyl-beta-D-thiogalactopyranoside (40 μg/ml) and arabinose (2% w/v) for induced expression of tlyA and cmnU, respectively, and varying concentrations of CMN (12.5-100 μg/ml) or kanamycin (6-96 μg/ml). […]

Assay [2] concerns St. lividans 1326/pSE34 (cmnU−). Description: MIC in St. lividans 1326 with empty vector. The format is cell-based, Streptomyces lividans. As for the experimental part: (§2) Analysis of cmnU in St. lividans 1326. The XbaI/HindIII fragment of pET22b-cmnU was cloned into the corresponding sites of pSE34 (29) to generate pSE34-cmnU. This vector construct results in the constitutive expression of cmnU when pSE34-cmnU is introduced into St. lividans 1326. pSE34-cmnU and pSE34 were introduced into St. lividans 1326 by transformation, and successful transformants were selected by using an overlay of thiostrepton (8 μg/ml). Transformants were streaked for isolation on ISP2 medium containing thiostrepton. To test for CMN or kanamycin resistance, 10^5 spores of St. lividans 1326 containing either pSE34-cmnU or pSE34 were plated onto ISP2 plates supplemented with CMN (25-1600 μg/ml) or kanamycin (3-1600 μg/ml). The plates were incubated at 30° C. for 2 days, and the minimum inhibitory concentration was defined as the lowest antibiotic concentration at which no growth was observed.

Assay [3] relates to E. coli DH5α/pBAD33-cmnU/pLJ102 (cmnU+, tlyA−). Description: MIC in E. coli expressing cmnU. The format is cell-based, Escherichia coli.
Description: as §1

The subject of assay [4] is E. coli DH5α/pBAD33-cmnU/pSJ101 (cmnU+, tlyA+). Description: MIC in E. coli expressing cmnU and tlyA. The format is cell-based, Escherichia coli.
Description: as §1

The subject of assay [5] is St. lividans 1326/pSE34-cmnU (cmnU+). Description: MIC in St. lividans 1326 expressing cmnU. Format: cell-based, Streptomyces lividans. As for the experimental part: as §2
The test system of assay [6] is E. coli DH5α/pBAD33/pLJ102 (cmnU−, tlyA−). Description: MIC in E. coli, cmnU not expressed, tlyA not expressed. Format: cell-based, Escherichia coli.
Description: as §1

[7] abbreviates: Escherichia coli, 16 h, read-out: minimum inhibitory concentration (MIC).
Setting [8] is: Streptomyces lividans, 48 h, read-out: minimum inhibitory concentration (MIC).

In brackets after ≈: the same amount, converted by molar mass. Where only a bound is given, the exact number is not on record here.

Consider `NC[C@H]1O[C@H](O[C@H]2[C@H](O)[C@@H](O[C@H]3O[C@H](CO)[C@@H](O)[C@H](N)[C@H]3O)[C@H](N)C[C@@H]2N)[C@H](O)[C@@H](O)[C@@H]1O` [Kanamycin, kanamycin], for which the MIC in assay [1] (setting [7]) is 12 µg/mL (≈ 24.8 µM); in assay [2] (setting [8]), 6 µg/mL (≈ 12.4 µM); in assay [3] (setting [7]), 96 µg/mL (≈ 198 µM); in assay [4] (setting [7]) it was 24 µg/mL (≈ 49.5 µM); in assay [5] (setting [8]), above 1600 µg/mL; in assay [6] (setting [7]), 12 µg/mL (≈ 24.8 µM).

With capreomycin [CMN], the “minimum inhibitory concentration (MIC)” value in assay [1] (E. coli DH5α/pBAD33/pSJ101 (cmnU−, tlyA+), lowest concentration with OD650 < 0.1 after 16 hrs at 37° C. in LB medium, three separate experiments) was 25 µg/mL; in assay [2] (St. lividans 1326/pSE34 (cmnU−), lowest concentration with no growth on ISP2 plates after 2 days at 30° C., three separate experiments), 200 µg/mL; in assay [3] (E. coli DH5α/pBAD33-cmnU/pLJ102 (cmnU+, tlyA−), lowest concentration with OD650 < 0.1 after 16 hrs at 37° C. in LB medium, three separate experiments), 100 µg/mL; in assay [4] (E. coli DH5α/pBAD33-cmnU/pSJ101 (cmnU+, tlyA+), lowest concentration with OD650 < 0.1 after 16 hrs at 37° C. in LB medium, three separate experiments) it was 50 µg/mL; in assay [5] (St. lividans 1326/pSE34-cmnU (cmnU+), lowest concentration with no growth on ISP2 plates after 2 days at 30° C., three separate experiments) it was above 1600 µg/mL; in assay [6] (E. coli DH5α/pBAD33/pLJ102 (cmnU−, tlyA−), lowest concentration with OD650 < 0.1 after 16 hrs at 37° C. in LB medium, three separate experiments) it was 50 µg/mL.
